Reference: ChEMBL document CHEMBL1123008, “Synthesis and antinociceptive activity of 4-(cyclopropylmethyl)-3,4,5,6-tetrahydro-2H-1,5-methano-1, 4-benzodiazocin-9-amine and congeners” (1985)

How the values were obtained:
Type in all cases: functional
[1] = tested on: Rattus norvegicus; assay: Analgesic agonist activity by rat tail-flick test through subcutaneous administration; Inactive at 120 mg/kg; settings: sc
[2] = tested on: Rattus norvegicus; assay: In vivo narcotic antagonist activity in rat after subcutaneous administration of the compound
[3] = tested on: Rattus norvegicus; assay: In vivo narcotic antagonist activity by rat phenazocine antagonism test through oral administration
[4] = tested on: Rattus norvegicus; assay: In vivo narcotic antagonist activity by rat phenazocine antagonism test through subcutaneous administration
[5] = tested on: Rattus norvegicus; assay: Analgesic agonist activity by rat intracarotid bradykinin writhing test through subcutaneous administration; settings: sc
[6] = tested on: Mus musculus; assay: Analgesic agonist activity by mouse acetylcholine writhing test through subcutaneous administration; settings: sc
[7] = tested on: Mus musculus; assay: Maximum analgesic agonist activity obtained by mouse acetylcholine writhing test through subcutaneous administration at 75 mg/kg; settings: sc
[8] = tested on: Rattus norvegicus; assay: In vivo narcotic antagonist activity in rat after subcutaneous administration at 80 mg/kg; settings: sc
[9] = tested on: Rattus norvegicus; assay: In vivo narcotic antagonist activity in rat after subcutaneous administration at 60 mg/kg & lethal at 120 mg/kg
[10] = tested on: Rattus norvegicus; assay: In vivo narcotic antagonist activity by rat phenazocine antagonism test through subcutaneous administration at 10 mg/kg
[11] = tested on: Rattus norvegicus; assay: In vivo narcotic antagonist activity in rat after subcutaneous administration at 10 mg/kg & convulsions at 20 mg/kg; settings: sc
[12] = species: Rattus norvegicus; assay: animal or person; settings: in Mus musculus, sc
[13] = tested on: Rattus norvegicus; assay: In vivo narcotic antagonist activity by AD50 vs. morphine through subcutaneous administration
[14] = tested on: Rattus norvegicus; assay: In vivo narcotic antagonist activity by AD50 vs. meperidine through subcutaneous administration
[15] = tested on: Rattus norvegicus; assay: In vivo narcotic antagonist activity in rat after oral administration of the compound
[16] = tested on: Rattus norvegicus; assay: In vivo narcotic antagonist activity by rat phenylquinone test through oral administration
[17] = tested on: Rattus norvegicus; assay: In vivo narcotic antagonist activity by AD50 vs. meperidine through oral administration
[18] = tested on: Rattus norvegicus; assay: Analgesic agonist activity by rat tail-flick test through oral administration; Inactive at 200 mg/kg
[19] = tested on: Rattus norvegicus; assay: In vivo narcotic antagonist activity by AD50 vs. morphine through oral administration
[20] = tested on: Rattus norvegicus; assay: In vivo narcotic antagonist activity by rat phenylquinone test through subcutaneous administration; settings: sc

How did the ED50 [1] turn out when `CCS(=O)(=O)O.c1ccc2c(c1)CC1CN2CCN1CC1CC1` (stereo not given) was run?
The ED50 was 1 mg/kg.

And the AD50 [2]?
Its AD50 is 34 mg/kg.

Which AD50 [3] does the source give for `Oc1ccc2c(c1)N1CCN(CC3CC3)C(C2)C1` (stereo not given) here?
Its AD50 is 3.2 mg/kg.

And the AD50 [4]?
Its AD50 is 0.02 mg/kg.

And the ED50 [5]?
Its ED50 is 37 mg/kg.

And the ED50 [6]?
Its ED50 is 10 mg/kg.

How did the inhibition in vivo at 75 mg/kg [7] turn out when `Nc1ccc2c(c1)N1CCN(CC3CC3)[C@@H](C2)C1` was run?
Its inhibition in vivo at 75 mg/kg is 67%.

And the inhibition in vivo at 80 mg/kg [8]?
Its inhibition in vivo at 80 mg/kg is 25%.

And the ED50 [6]?
The ED50 was 40 mg/kg.

Which AD50 [2] does the source give for `C=CCN1CCN2CC1Cc1ccc(N)cc12.CCS(=O)(=O)O` (stereo not given) here?
Its AD50 is 1.6 mg/kg.

What does the source list for `CCNc1ccc2c(c1)N1CCN(CC3CC3)C(C2)C1.Cl` (stereo not given)?
AD50 [4]: 4.4 mg/kg; Inhibition [9]: 17%

Which results are given for `Nc1ccc2c(c1)N1CCN(CC3CC3)[C@H](C2)C1`?
AD50 [2]: 0.31 mg/kg; ED50 [6]: 1 mg/kg

Which AD50 [10] does the source give for `CCCCNc1ccc2c(c1)N1CCN(CC3CC3)C(C2)C1` (stereo not given) here?
The AD50 was 1 mg/kg.

And the ED50 [11]?
Its ED50 is 1 mg/kg.

`C=CCN1CC[C@]23c4c5ccc(O)c4O[C@H]2[C@@H](O)C=C[C@H]3[C@H]1C5.Cl` [NALORPHINE HYDROCHLORIDE] was tested. Which ED50 [12] did it give?
The ED50 was 2.8 mg/kg.

What about the ED50 [5] of the same molecule?
The ED50 was 0.24 mg/kg.

And the AD50 [2]?
The AD50 was 0.032 mg/kg.

How did the AD50 [13] turn out when `Nc1ccc2c(c1)N1CCN(CC3CC3)C(C2)C1` (stereo not given) was run?
The AD50 was 8.6 mg/kg.

And the ED50 [1]?
Its ED50 is 1 mg/kg.

What about the AD50 [14] of the same molecule?
Its AD50 is 3.3 mg/kg.

What about the AD50 [15] of the same molecule?
Its AD50 is 3.5 mg/kg.

And the ED50 [16]?
Its ED50 is 5.7 mg/kg.

What about the AD50 [4] of the same molecule?
Its AD50 is 1.6 mg/kg.

And the AD50 [17]?
The AD50 was 4.8 mg/kg.

And the ED50 [18]?
The ED50 was 1 mg/kg.

And the AD50 [19]?
The AD50 was 13 mg/kg.

What about the ED50 [20] of the same molecule?
The ED50 was 1.8 mg/kg.

Which ED50 [12] does the source give for `CN1CC[C@]23c4c5ccc(O)c4O[C@H]2[C@@H](O)C=C[C@H]3[C@H]1C5.CN1CC[C@]23c4c5ccc(O)c4O[C@H]2[C@@H](O)C=C[C@H]3[C@H]1C5.O=S(=O)(O)O` here?
Its ED50 is 0.21 mg/kg.
